{
  "source": "patent US8334312B2",
  "about": "“Fungicidal mixtures for wood preservation” (LANXESS Deutschland GmbH, priority 2005, dated 2012)",
  "experiment_in_all_cases": "Mycelium radial growth inhibition on malt extract/peptone agar (MIC) and Kull synergism",
  "assay_type_in_all_cases": "cell-based",
  "key": {"[1]": {"tested_on": "Coniophora puteana", "settings": "26° C. agar", "procedure": "(§1) Mycelium pieces were punched out of colonies of the wood-destroying organisms Coriolus versicolor, Poria placenta, Gloeophyllum trabeum and Cornophora puteana and incubated at 26° C. on a malt extract/peptone-containing nutrient agar. Here, the growth of the fungal threads with and without added active compound was compared. The stated minimum inhibitory concentration (MIC) is the active compound concentration at which the radial growth of the fungal threads is suppressed completely. Using the method described by Kull et al. (F. C. Kull, […]. Mayer, Applied Microbiology 9, 538 to 541, 1961), the synergism was determined. Here, the following relations apply: […]"}, "[2]": {"tested_on": "Coriolus versicolor", "settings": "for Qb = concentration of substance B which is the MIC: b = triadimefon alone; for Qa = concentration of substance A which is the MIC: 26° C. agar", "procedure": "as §1"}, "[3]": {"tested_on": "Gloeophyllum trabeum", "procedure": "as §1"}, "[4]": {"tested_on": "Poria placenta", "settings": "26° C. agar", "procedure": "as §1"}},
  "data": [
    {"smiles": "CC(C)(C)C(=O)C(Oc1ccc(Cl)cc1)n1cncn1", "note": "(racemic) [triadimefon, (±)-1-(4-chlorophenoxy)-3,3-dimethyl-1-(1H-1,2,4-triazol-1-yl)butan-2-one]", "values": [
      {"measurement": "Qb = concentration of substance B which is the MIC", "setting": "[1]; b = triadimefon alone", "result": 30},
      {"measurement": "Qb = concentration of substance B which is the MIC", "setting": "[2]; 26° C. agar (Example 2)", "result": 6},
      {"measurement": "Qb = concentration of substance B which is the MIC", "setting": "[2]; 26° C. agar (Example 3)", "result": 3},
      {"measurement": "Qb = concentration of substance B which is the MIC", "setting": "[3]; b = triadimefon alone, 26° C. agar", "result": 30},
      {"measurement": "Qb = concentration of substance B which is the MIC", "setting": "[4]; b = triadimefon alone", "result": 3}
    ]},
    {"smiles": "CC(C)(C)C(O)C(Oc1ccc(Cl)cc1)n1cncn1", "note": "(racemic) [triadimenol, (±)-1-(4-chlorophenoxy)-3,3-dimethyl-1-(1H-1,2,4-triazol-1-yl) butan-2-ole]", "values": [
      {"measurement": "Qa = concentration of substance A which is the MIC", "setting": "[3]; a = triadimenol alone, 26° C. agar", "result": 1},
      {"measurement": "Qa = concentration of substance A which is the MIC", "setting": "[4]; a = triadimenol alone", "result": 1}
    ]},
    {"smiles": "CCCC1COC(Cn2cncn2)(c2ccc(Cl)cc2Cl)O1", "note": "(centres unmarked) [propiconazole]", "values": [
      {"measurement": "Qa = concentration of substance A which is the MIC", "setting": "[2]; a = propiconazole alone", "result": 3},
      {"measurement": "Qa = concentration of substance A which is the MIC", "setting": "[4]; a = propiconazole alone", "result": 1}
    ]},
    {"smiles": "CC(C)(C)C(O)(CCc1ccc(Cl)cc1)Cn1cncn1", "note": "(centres unmarked) [tebuconazole]", "values": [
      {"measurement": "Qa = concentration of substance A which is the MIC", "setting": "[1]; a = tebuconazole alone", "result": 6},
      {"measurement": "Qa = concentration of substance A which is the MIC", "setting": "[2]; a = tebuconazole alone", "result": 0.3},
      {"measurement": "Qa = concentration of substance A which is the MIC", "setting": "[3]; a = tebuconazole alone, 26° C. agar (Example 3)", "result": 0.5},
      {"measurement": "Qb = concentration of substance B which is the MIC", "setting": "[3]; b = tebuconazole alone, 26° C. agar (Example 1)", "result": 0.7},
      {"measurement": "Qb = concentration of substance B which is the MIC", "setting": "[4]; b = tebuconazole alone", "result": 1}
    ]}
  ]
}
